The values below come from US8492589B2, “Alkynyl phenyl derivative compounds for treating ophthalmic diseases and disorders” (Acucela Inc., priority 2007, dated 2013).

This test deals with T1, visual cycle isomerase (Bovine RPE microsome membranes) (Bos taurus, UniProt Q28175).
T1 construct: Bovine Retinal Pigment Epithelium (RPE) microsome membranes were the source of a visual cycle isomerase; from tissue; host or cells: bovine retinal pigment epithelium microsome membranes
T1 sequence (Q28175 2-533 limits assumed): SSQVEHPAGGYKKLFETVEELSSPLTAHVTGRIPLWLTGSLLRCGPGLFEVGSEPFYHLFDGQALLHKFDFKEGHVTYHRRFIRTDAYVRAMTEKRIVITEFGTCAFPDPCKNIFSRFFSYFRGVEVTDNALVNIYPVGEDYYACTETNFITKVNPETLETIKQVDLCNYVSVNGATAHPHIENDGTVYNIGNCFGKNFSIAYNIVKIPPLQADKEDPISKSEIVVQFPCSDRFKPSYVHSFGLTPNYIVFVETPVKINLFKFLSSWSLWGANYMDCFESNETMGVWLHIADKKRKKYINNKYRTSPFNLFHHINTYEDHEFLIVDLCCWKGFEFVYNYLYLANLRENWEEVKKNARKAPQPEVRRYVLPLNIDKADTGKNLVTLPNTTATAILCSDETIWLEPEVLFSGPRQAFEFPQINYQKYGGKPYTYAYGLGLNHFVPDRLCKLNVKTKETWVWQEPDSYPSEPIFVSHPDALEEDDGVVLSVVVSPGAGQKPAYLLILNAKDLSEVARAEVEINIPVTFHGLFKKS
Briefly: In vitro isomerase inhibition assay, bovine RPE microsome membranes. The following applies: bovine RPE microsomes; 11-cis retinol formation. Format: biochemical. The method, then:
The capability of alkynyl phenyl-linked amine derivative compounds to inhibit the activity of a visual cycle isomerase was determined.
Bovine Retinal Pigment Epithelium (RPE) microsome membranes were the source of a visual cycle isomerase.
Crude RPE microsome extracts were thawed in a 37° C. water bath, and then immediately placed on ice. 50 ml crude RPE microsomes were placed into a 50 ml Teflon-glass homogenizer (Fisher Scientific, catalog no. 0841416M) on ice, powered by a hand-held DeWalt drill, and homogenized ten times up and down on ice under maximum speed. This process was repeated until the crude RPE microsome solution was homogenized. The homogenate was then subjected to centrifugation (50.2 Ti rotor (Beckman, Fullerton, Calif.), 13,000 RPM; 15360 Rcf) for 15 minutes at 4° C. The supernatant was collected and subjected to centrifugation at 42,000 RPM (160,000 Rcf; 50.2 Ti rotor) for 1 hour at 4° C. The supernatant was removed, and the pellets were suspended in 12 ml (final volume) cold 10 mM MOPS buffer, pH 7.0. The resuspended RPE membranes in 5 ml aliquots were homogenized in a glass-to-glass homogenizer (Fisher Scientific, catalog no. K885500-0021) to high homogeneity. Protein concentration was quantified using the BCA protein assay according to the manufacturer's protocol (Pierce, Rockford, Ill.). The homogenized RPE preparations were stored at −80° C.
Recombinant human apo cellular retinaldehyde-binding protein (CRALBP) was cloned and expressed according to standard methods in the molecular biology art (see Crabb et al., Protein Science 7:746-57 (1998); Crabb et al., J. Biol. Chem. 263:18688-92 (1988)). Briefly, total RNA was prepared from confluent ARPE19 cells (American Type Culture Collection, Manassas, Va.), cDNA was synthesized using an oligo(dT)12-18 primer, and then DNA encoding CRALBP was amplified by two sequential polymerase chain reactions (see Crabb et al., J. Biol. Chem. 263:18688-92 (1988); Intres, et al., J. Biol. Chem. 269:25411-18 (1994); GenBank Accession No. L34219.1). The PCR product was sub-cloned into pTrcHis2-TOPO TA vector according to the manufacturer's protocol (Invitrogen Inc., Carlsbad, Calif.; catalog no. K4400-01), and then the sequence was confirmed according to standard nucleotide sequencing techniques. Recombinant 6×His-tagged human CRALBP was expressed in One Shot TOP 10 chemically competent E. coli cells (Invitrogen), and the recombinant polypeptide was isolated from E. coli cell lysates by nickel affinity chromatography using nickel (Ni) Sepharose XK16-20 columns for HPLC (Amersham Bioscience, Pittsburgh, Pa.; catalog no. 17-5268-02). The purified 6×His-tagged human CRALBP was dialyzed against 10 mM bis-tris-Propane (BTP) and analyzed by SDS-PAGE. The molecular weight of the recombinant human CRALBP was approximately 39 kDal.
Alkkynyl phenyl-linked amine derivative compounds and control compounds were reconstituted in ethanol to 0.1 M. Ten-fold serial dilutions (10^−2, 10^−3, 10^−4, 10^−5, 10^−6 M) in ethanol of each compound were prepared for analysis in the isomerase assay.
The isomerase assay was performed in 10 mM bis-tris-propane (BTP) buffer, pH 7.5, 0.5% BSA (diluted in BTP buffer), 1 mM sodium pyrophosphate, 20 μM all-trans retinol (in ethanol), and 6 μM apo-CRALBP. The test compounds (2 μl) (final […] dilution of serial dilution stocks) were added to the above reaction mixture to which RPE microsomes were added. The same volume of ethanol was added to the control reaction (absence of test compound). Bovine RPE microsomes (9 μl) (see above) were then added, and the mixtures transferred to 37° C. to initiate the reaction (total volume=150 μl). The reactions were stopped after 30 minutes by adding methanol (300 μl). Heptane was added (300 μl) and mixed into the reaction mixture by pipetting. Retinoid was extracted by agitating the reaction mixtures, followed by centrifugation in a microcentrifuge. […]
`CCC(O)(C#Cc1cccc(CCCN)c1)CC` [Example 1, 1-(3-(3-Aminopropyl)phenyl)-3-ethylpent-1-yn-3-ol] had an IC50 of at most 1 µM.

Compound `CCCC(C#Cc1cccc(CCCN)c1)(CCC)OC` [Example 4, 3-(3-(3-Methoxy-3-propylhex-1-ynyl)phenyl)propan-1-amine] came in with an IC50 of at most 1 µM.

For `NCCC(O)c1cccc(C#CCCO)c1` (stereo not shown) [Example 51, 4-(3-(3-Amino-1-hydroxypropyl)phenyl)but-3-yn-1-ol], the IC50 was at most 1 µM.

Compound `CC(C)(C)C(C)(O)C#Cc1cccc(CCCN)c1` (stereo not shown) [Example 25, 1-(3-(3-Aminopropyl)phenyl)-3,4,4-trimethylpent-1-yn-3-ol] had an IC50 of at most 1 µM.

The compound `NCCC(O)c1cccc(C#CC2(O)CCCCCC2)c1` (stereo not shown) [Example 59, 1-((3-(3-Amino-1-hydroxypropyl)phenyl)ethynyl)cycloheptanol] returned an IC50 of at most 1 µM.

In the case of `NCCOc1cccc(C#Cc2cccnc2)c1` [Example 62, 2-(3-(Pyridin-3-ylethynyl)phenoxy)ethanamine], the IC50 was at most 10 µM.

In turn, `NCCOc1cccc(C#CC2CCCC2)c1` [Example 79, 2-(3-(Cyclopentylethynyl)phenoxy)-ethanamine] yielded an IC50 of at most 1 µM.

For the compound `CCCC(O)C#Cc1cccc(CCCN)c1` (stereo not shown) [Example 8, 1-(3-(3-Aminopropyl)phenyl)hex-1-yn-3-ol], the IC50 is at most 1 µM.

`CC(C)C(O)(C#Cc1cccc(OCCN)c1)C(C)C` [Example 28, 1-(3-(2-Aminoethoxy)phenyl)-3-isopropyl-4-methylpent-1-yn-3-ol] showed a half-inhibitory concentration (IC50) of at most 1 µM.

`NCCCc1cccc(C#CC2(O)CCCC2)c1` [Example 24, 1-((3-(3-Aminopropyl)phenyl)ethynyl)cyclopentanol]: the half-inhibitory concentration (IC50) was at most 1 µM.

Compound `NCCOc1cccc(C#CC2(O)CCCC2)c1` [Example 31, 1-((3-(2-Aminoethoxy)phenyl)ethynyl)cyclopentanol] had an IC50 of at most 1 µM.

Take `CCCC(O)(C#Cc1cccc(CCCN)c1)CCC` [Example 2, 4-((3-(3-Aminopropyl)phenyl)ethynyl)heptan-4-ol]: the concentration for half-maximal inhibition (IC50) is at most 1 µM.

As for `NCCCc1cccc(C#CC2(O)CCCCC2)c1` [Example 11, 1-((3-(3-Aminopropyl)phenyl)ethynyl)cyclohexanol], the 50% inhibitory concentration (IC50) is at most 1 µM.

As for `NCCOc1cccc(C#CC2(O)CCCCCC2)c1` [Example 78, 1-((3-(2-aminoethoxy)phenyl)ethynyl)-cycloheptanol], the IC50 is at most 1 µM.

The compound `NCCCc1cccc(C#C[C@@H](O)c2ccccc2)c1` [Example 26, (S)-3-(3-(3-Aminopropyl)phenyl)-1-phenylprop-2-yn-1-ol] registered a half-maximal inhibitory concentration (IC50) of at most 10 µM.

In turn, `NCCC(O)c1cccc(C#CC2CCCCC2)c1` (stereo not shown) [Example 52, 3-Amino-1-(3-(Cyclohexylethynyl)Phenyl)Propan-1-ol] yielded an IC50 of at most 1 µM.

As for `NCCOc1cccc(C#CC2(O)CCSCC2)c1` [Example 55, 4-((3-(2-Aminoethoxy)Phenyl)Ethynyl)Tetrahydro-2H-Thiopyran-4-ol], the IC50 was at most 1 µM.

The compound `NCCCc1cccc(C#Cc2ccncc2)c1` [Example 63, 3-(3-(Pyridin-4-ylethynyl)phenyl)propan-1-amine] came in with an IC50 of at most 10 µM.

Turning to `COc1ccccc1C#Cc1cccc(CCCN)c1` [Example 36, 3-(3-((2-Methoxyphenyl)Ethynyl)Phenyl)Propan-1-Amine], the IC50 was at most 1 µM.

`NCCOc1cccc(C#CC2(O)CCCCC2)c1` [Example 57, 1-((3-(2-Aminoethoxy)phenyl)ethynyl)cyclohexanol] showed a half-maximal inhibitory concentration (IC50) of at most 1 µM.

`NCCCc1cccc(C#Cc2ccccn2)c1` [Example 61, 3-(3-(Pyridin-2-ylethynyl)phenyl)propan-1-amine] displayed a concentration for half-maximal inhibition (IC50) of at most 1 µM.

Consider `CCCC(O)(C#Cc1cccc([C@H](O)CCN)c1)CCC` [Compound 100, (R)-4-((3-(3-Amino-1-Hydroxypropyl)Phenyl)Ethynyl)Heptan-4-ol], for which the IC50 was at most 1 µM.

Compound `NCCOc1cccc(C#CCCCCO)c1` [Example 74, 6-(3-(2-Aminoethoxy)phenyl)hex-5-yn-1-ol] gave a concentration for half-maximal inhibition (IC50) of at most 1 µM.

`CC(=O)NCCCc1cccc(C#CC2(O)CCCCC2)c1` [Example 60, N-(3-(3-((1-Hydroxycyclohexyl)Ethynyl)Phenyl)Propyl)Acetamide]: the IC50 was at most 10 µM.

Compound `CCCC(O)(C#Cc1cccc([C@@H](O)CCN)c1)CCC` [Compound 101, (S)-4-((3-(3-Amino-1-Hydroxypropyl)Phenyl)Ethynyl)Heptan-4-ol] had an IC50 of at most 1 µM.

Turning to `CCCC(O)(C#Cc1cccc(OCCN)c1)CCC` [Example 18, 4-((3-(2-Aminoethoxy)phenyl)ethynyl)heptan-4-ol], the IC50 was at most 1 µM.

In turn, `CC(C)C(O)(C#Cc1cccc(CCCN)c1)C(C)C` [Example 32, 1-(3-(3-Aminopropyl)phenyl)-3-isopropyl-4-methylpent-1-yn-3-ol] displayed an IC50 of at most 1 µM.

`NCCC(O)c1cccc(C#CCCc2ccccc2)c1` (stereo not shown) [Example 69, 3-Amino-1-(3-(4-phenylbut-1-ynyl)phenyl)propan-1-ol] yielded an IC50 of at most 1 µM.

`CCCC(O)(C#Cc1cccc(C(O)CCN)c1)CCC` (stereo not shown) [Example 19, 4-((3-(3-Amino-1-hydroxypropyl)phenyl)ethynyl)heptan-4-ol] yielded an IC50 of at most 1 µM.

Compound `COc1ccccc1C#Cc1cccc(C(O)CCN)c1` (stereo not shown) [Example 54, 3-Amino-1-(3-((2-Methoxyphenyl)Ethynyl)Phenyl)Propan-1-ol] gave an IC50 of at most 1 µM.

`NCCOc1cccc(C#Cc2ccccc2)c1` [Example 81, 2-(3-(Phenylethynyl)phenoxy)-ethanamine] gave a concentration for half-maximal inhibition (IC50) of at most 10 µM.

As to `NCCOc1cccc(C#CC2CCCCC2)c1` [Example 80, 2-(3-(Cyclohexylethynyl)phenoxy)ethanamine], the half-maximal inhibitory concentration (IC50) was at most 1 µM.

`CCC(O)(C#Cc1cccc(OCCN)c1)CC` [Example 27, 1-(3-(2-Aminoethoxy)phenyl)-3-ethylpent-1-yn-3-ol] showed an IC50 of at most 1 µM.

The compound `NCCCc1cccc(C#Cc2ccccc2)c1` [Example 37, 3-(3-(Phenylethynyl)phenyl)propan-1-amine] had a half-maximal inhibitory concentration (IC50) of at most 1 µM.

In turn, `NCCC(O)c1cccc(C#CC2CCCC2)c1` (stereo not shown) [Example 47, 3-Amino-1-(3-(cyclopentylethynyl)phenyl)propan-1-ol] displayed a 50% inhibitory concentration (IC50) of at most 1 µM.

The compound `NCCC(O)c1cccc(C#CCCCCO)c1` (stereo not shown) [Example 50, 6-(3-(3-Amino-1-hydroxypropyl)phenyl)hex-5-yn-1-ol] yielded a concentration for half-maximal inhibition (IC50) of at most 1 µM.

In the case of `NCCCc1cccc(C#CC2CCCC2)c1` [Example 38, 3-(3-(Cyclopentylethynyl)phenyl)propan-1-amine], the IC50 is at most 1 µM.
